The target in experiment [1] is T1, MAP kinase-activated protein kinase 5 (Homo sapiens, UniProt Q8IW41).
T1 sequence (Q8IW41 whole entry): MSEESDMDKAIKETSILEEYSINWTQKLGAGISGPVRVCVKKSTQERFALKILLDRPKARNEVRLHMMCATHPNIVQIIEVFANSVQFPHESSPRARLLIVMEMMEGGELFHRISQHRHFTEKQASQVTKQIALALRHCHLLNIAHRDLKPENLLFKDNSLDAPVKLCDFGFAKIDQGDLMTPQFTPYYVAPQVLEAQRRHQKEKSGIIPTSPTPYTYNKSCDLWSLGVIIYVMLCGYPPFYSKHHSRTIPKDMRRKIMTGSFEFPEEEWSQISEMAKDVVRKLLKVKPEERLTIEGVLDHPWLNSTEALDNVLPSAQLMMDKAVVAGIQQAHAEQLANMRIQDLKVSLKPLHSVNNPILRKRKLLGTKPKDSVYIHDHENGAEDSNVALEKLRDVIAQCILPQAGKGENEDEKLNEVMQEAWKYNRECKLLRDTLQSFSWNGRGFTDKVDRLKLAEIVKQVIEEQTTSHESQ

The target of experiment [2] is Phosphatidylethanolamine-binding protein 1 (Homo sapiens, UniProt P30086).
In experiment [3] the target is T2, Phosphatidylinositol 5-phosphate 4-kinase type-2 gamma (Homo sapiens, UniProt Q8TBX8).
T2 sequence (Q8TBX8 whole entry): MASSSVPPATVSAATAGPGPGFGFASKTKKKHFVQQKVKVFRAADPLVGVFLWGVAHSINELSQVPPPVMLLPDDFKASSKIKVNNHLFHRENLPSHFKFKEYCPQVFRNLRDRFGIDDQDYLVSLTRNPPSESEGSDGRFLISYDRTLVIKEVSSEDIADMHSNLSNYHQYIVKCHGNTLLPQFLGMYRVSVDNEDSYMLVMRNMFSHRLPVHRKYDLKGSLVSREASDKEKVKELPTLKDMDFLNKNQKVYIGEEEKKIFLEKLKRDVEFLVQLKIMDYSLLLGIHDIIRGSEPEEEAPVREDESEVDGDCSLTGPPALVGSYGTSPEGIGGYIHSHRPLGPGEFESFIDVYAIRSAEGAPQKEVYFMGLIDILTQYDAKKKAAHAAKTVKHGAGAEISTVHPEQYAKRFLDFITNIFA

The target in experiment [4] is T3, Rab-like protein 3 (Homo sapiens, UniProt Q5HYI8).
T3 sequence (Q5HYI8 whole entry): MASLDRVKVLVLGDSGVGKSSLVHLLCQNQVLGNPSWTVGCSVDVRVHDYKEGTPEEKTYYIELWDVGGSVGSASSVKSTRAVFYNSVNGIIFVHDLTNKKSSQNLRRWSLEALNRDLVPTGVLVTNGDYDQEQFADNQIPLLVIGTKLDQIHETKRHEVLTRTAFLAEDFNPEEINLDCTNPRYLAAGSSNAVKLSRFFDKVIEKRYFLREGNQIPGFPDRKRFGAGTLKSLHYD

Experiment [5] deals with Proto-oncogene tyrosine-protein kinase Src (Homo sapiens, UniProt P12931).
Experiment [6] has as its target T4, TGF-beta receptor type-1 (Homo sapiens, UniProt P36897).
T4 sequence (P36897 whole entry): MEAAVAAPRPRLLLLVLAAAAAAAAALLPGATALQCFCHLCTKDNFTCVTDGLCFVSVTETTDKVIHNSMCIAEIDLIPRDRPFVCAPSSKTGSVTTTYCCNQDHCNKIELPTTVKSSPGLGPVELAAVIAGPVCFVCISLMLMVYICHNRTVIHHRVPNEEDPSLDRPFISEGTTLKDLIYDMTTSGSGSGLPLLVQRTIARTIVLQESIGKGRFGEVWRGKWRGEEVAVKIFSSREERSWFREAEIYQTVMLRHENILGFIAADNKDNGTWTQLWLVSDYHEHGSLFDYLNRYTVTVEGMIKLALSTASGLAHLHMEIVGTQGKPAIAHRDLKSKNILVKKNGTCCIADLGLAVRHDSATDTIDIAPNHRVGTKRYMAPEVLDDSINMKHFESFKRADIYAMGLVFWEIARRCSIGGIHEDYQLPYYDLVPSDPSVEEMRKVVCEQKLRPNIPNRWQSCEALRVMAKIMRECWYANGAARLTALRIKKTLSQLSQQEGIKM

Calls of active or inactive are those of the source.
Also: in the data inactive means no Kd found up to 30 µM.

Chain of Phosphatidylethanolamine-binding protein 1 (P30086 whole entry): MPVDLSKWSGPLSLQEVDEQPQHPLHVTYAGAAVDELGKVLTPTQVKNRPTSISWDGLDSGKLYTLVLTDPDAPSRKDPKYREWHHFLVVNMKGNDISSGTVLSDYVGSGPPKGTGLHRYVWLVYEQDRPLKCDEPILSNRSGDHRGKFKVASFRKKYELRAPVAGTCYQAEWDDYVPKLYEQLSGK
Chain of Proto-oncogene tyrosine-protein kinase Src (P12931 2-536 limits assumed): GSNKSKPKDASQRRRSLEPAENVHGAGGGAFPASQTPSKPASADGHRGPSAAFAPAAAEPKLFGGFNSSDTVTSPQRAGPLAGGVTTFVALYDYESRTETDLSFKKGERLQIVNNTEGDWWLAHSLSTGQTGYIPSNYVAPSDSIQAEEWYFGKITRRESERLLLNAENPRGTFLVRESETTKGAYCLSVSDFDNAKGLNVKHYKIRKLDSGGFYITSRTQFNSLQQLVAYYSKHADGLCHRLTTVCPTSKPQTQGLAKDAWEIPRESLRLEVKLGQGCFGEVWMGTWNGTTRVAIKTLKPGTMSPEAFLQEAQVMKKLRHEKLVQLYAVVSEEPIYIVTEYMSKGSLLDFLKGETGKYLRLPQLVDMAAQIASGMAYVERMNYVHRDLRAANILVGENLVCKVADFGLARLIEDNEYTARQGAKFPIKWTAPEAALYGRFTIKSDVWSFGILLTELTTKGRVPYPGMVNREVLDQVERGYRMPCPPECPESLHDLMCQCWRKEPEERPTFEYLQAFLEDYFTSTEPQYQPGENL

Take `C[C@@H](Oc1cc(C(=O)Nc2ccc(C(=O)N3CCN(C)CC3)cc2)nnc1N)c1c(Cl)ccc(F)c1Cl`: the Kd in experiment [1], in experiment [2], in experiment [3], in experiment [4], in experiment [5] and in experiment [6] was > 30 µM (inactive) throughout.

`CCNC(=O)C#Cc1ccc2c(c1)NC(=O)/C2=C(\Nc1ccc(CN(C)C)cc1)c1ccccc1`: the Kd in experiment [3] is > 30 µM (inactive); in experiment [4], > 30 µM (inactive); in experiment [5], 0.491 µM (active); in experiment [6], > 30 µM (inactive).

As for `COCc1c(-c2ccc(NC(=O)Nc3cc(C(F)(F)F)ccc3F)c(F)c2)c2c(N)ncnn2c1CN1CCOCC1`, the Kd in experiment [1], in experiment [2], in experiment [3], in experiment [4], in experiment [5] and in experiment [6] was > 30 µM (inactive) in each case.

As to `Nc1ncnc2c1c(-c1cccc(OCc3ccccc3)c1)cn2[C@H]1C[C@@H](CN2CCC2)C1` [AEW-541], the Kd in experiment [1] was > 30 µM (inactive); in experiment [3] it was > 30 µM (inactive); in experiment [4] it was > 30 µM (inactive); in experiment [5] it was 3.55 µM (active); in experiment [6] it was > 30 µM (inactive).

For `COc1cc([C@@H]2c3cc4c(cc3[C@H](O)[C@H]3COC(=O)[C@@H]23)OCO4)cc(OC)c1OC` [AXL-1717], the Kd in experiment [1], in experiment [2], in experiment [3], in experiment [4], in experiment [5] and in experiment [6] was > 30 µM (inactive) in each case.

On to `NC(=O)Nc1cc(-c2cccc(F)c2)sc1C(=O)N[C@H]1CCCNC1` [AZD-7762], for which the Kd was > 30 µM (inactive) in experiment [1]; > 30 µM (inactive) in experiment [2]; > 30 µM (inactive) in experiment [3]; > 30 µM (inactive) in experiment [4]; 0.109 µM (active) in experiment [5]; > 30 µM (inactive) in experiment [6].

In the case of `Cc1cc(Nc2ncc(Cl)c(Nc3ccccc3S(=O)(=O)C(C)C)n2)c(OC(C)C)cc1C1CCNCC1` [CERITINIB], the Kd in experiment [1], in experiment [2], in experiment [3], in experiment [4], in experiment [5] and in experiment [6] was > 30 µM (inactive) throughout.

In the case of `C#Cc1cccc(Nc2ncnc3cc(OC)c(OCCCCCCC(=O)NO)cc23)c1` [CUDC-101], the Kd in experiment [1], in experiment [2], in experiment [3], in experiment [4], in experiment [5] and in experiment [6] was > 30 µM (inactive) throughout.

For `Cn1cc(C2=C(c3cn(C4CCN(Cc5ccccn5)CC4)c4ccccc34)C(=O)NC2=O)c2ccccc21` [ENZASTAURIN], the Kd in experiment [2] and in experiment [4] was > 30 µM (inactive) each time.

Take `Cc1cccc(-c2nn3c(c2-c2ccnc4ccc(C(N)=O)cc24)CCC3)n1` [GALUNISERTIB]: the Kd in experiment [1], in experiment [2], in experiment [3], in experiment [4] and in experiment [5] was > 30 µM (inactive) in each case.

In the case of `CCn1cc(-c2ccnc3[nH]c(-c4cccc(CN(C)C)c4)cc23)c(-c2ccc(NC(=O)N(C)C)cc2)n1` [GSK-1070916], the Kd is > 30 µM (inactive) in experiment [1], > 30 µM (inactive) in experiment [4] and 1.94 µM (active) in experiment [6].

As for `CNC(=O)c1nn(C)c2c1C(C)(C)Cc1cnc(Nc3ccc(N4CCN(C)CC4)cc3)nc1-2` [MILCICLIB], the Kd in experiment [1] was > 30 µM (inactive); in experiment [3] it was 1.43 µM (active); in experiment [4], > 30 µM (inactive); in experiment [5] it was 5.31 µM (active); in experiment [6], > 30 µM (inactive).

With `NC1(c2ccc(-c3nc4ccn5c(=O)[nH]nc5c4cc3-c3ccccc3)cc2)CCC1` [MK-2206], the Kd in experiment [1], in experiment [2], in experiment [3], in experiment [4], in experiment [5] and in experiment [6] was > 30 µM (inactive) in each case.

For the compound `CN(C[C@@H]1COCCO1)S(=O)(=O)Nc1ccc2ccc3ncc(-c4cnn(C)c4)cc3c(=O)c2c1` [MK-2461], the Kd in experiment [1] is > 30 µM (inactive); in experiment [2], > 30 µM (inactive); in experiment [3], 1.03 µM (active); in experiment [4], > 30 µM (inactive); in experiment [5], > 30 µM (inactive); in experiment [6], > 30 µM (inactive).

Turning to `FC(F)(F)c1ccc(/C=C/c2nc(COc3ccc(CCCCn4ccnn4)cc3)co2)cc1` [MUBRITINIB], the Kd in experiment [1], in experiment [2], in experiment [3], in experiment [4], in experiment [5] and in experiment [6] was > 30 µM (inactive) throughout.

Take `CCOc1cc2ncc(C#N)c(Nc3ccc(F)c(Cl)c3)c2cc1NC(=O)/C=C/CN(C)C` [PELITINIB]: the Kd in experiment [1], in experiment [2], in experiment [3], in experiment [4], in experiment [5] and in experiment [6] was > 30 µM (inactive) throughout.

With `CC(=O)NCC(=O)N1[C@@H]2CC[C@H]1c1ccc(Nc3ncc(C(F)(F)F)c(NC4CCC4)n3)cc12` [PF-03814735], the Kd in experiment [3], in experiment [4] and in experiment [6] was > 30 µM (inactive) throughout.

As for `CO[C@H]1C[C@@H]2CC[C@@H](C)[C@@](O)(O2)C(=O)C(=O)N2CCCC[C@H]2C(=O)O[C@H]([C@H](C)C[C@@H]2CC[C@@H](OP(C)(C)=O)[C@H](OC)C2)CC(=O)[C@H](C)/C=C(\C)[C@@H](O)[C@@H](OC)C(=O)[C@H](C)C[C@H](C)/C=C/C=C/C=C/1C` [RIDAFOROLIMUS], the Kd in experiment [1], in experiment [2], in experiment [3], in experiment [4], in experiment [5] and in experiment [6] was > 30 µM (inactive) each time.

Take `CN1CCN(CCOc2cc(OC3CCOCC3)c3c(Nc4c(Cl)ccc5c4OCO5)ncnc3c2)CC1` [SARACATINIB]: the Kd is > 30 µM (inactive) in experiment [1], > 30 µM (inactive) in experiment [3], > 30 µM (inactive) in experiment [4] and 0.197 µM (active) in experiment [6].

`COc1cc2c(Nc3ccc(Cl)c(Cl)c3F)ncnc2cc1OC[C@@H]1C[C@@H]2CN(C)C[C@@H]2C1` [TESEVATINIB]: the Kd in experiment [1] is > 30 µM (inactive); in experiment [2], > 30 µM (inactive); in experiment [3], > 30 µM (inactive); in experiment [4], > 30 µM (inactive); in experiment [5], 1.13 µM (active); in experiment [6], 3.32 µM (active).

Take `C[C@@H](NC(=O)c1ncnc(N)c1Cl)c1ncc(C(=O)Nc2cc(C(F)(F)F)c(Cl)cn2)s1` [TOVORAFENIB]: the Kd in experiment [1], in experiment [2], in experiment [3], in experiment [4], in experiment [5] and in experiment [6] was > 30 µM (inactive) throughout.

As a reminder, the Kd is a measure of binding affinity in units of concentration.

The values are drawn from ChEMBL document CHEMBL3991601, “The target landscape of clinical kinase drugs” (Science, 2017).
